Patent US20150018384A1, “TREATMENT FOR HIGH CHOLESTEROL” (FibroGen, Inc., priority 2012, published 2015)

Experiments:
cynomolgus monkeys [1] = experiment: Cholesterol levels after repeated oral administration in monkey toxicity studies; format: in vivo, cynomolgus monkey; settings: 28-Day study, daily oral dosing 1, 10 and 30 mg/kg, day 14 and 29
Method: During these studies monkeys were fasted prior to each blood collection. Plasma samples were then evaluated at pre-dose and at different time-points for levels of total cholesterol.

cynomolgus monkeys [2] = experiment: Lipid panel in monkeys after single IV or PO dose; format: in vivo, cynomolgus monkey; settings: 30 mg/kg IV or PO (3 each, 6 monkeys), 24 hrs post-dose, ±SD
Method: The same monkeys were administered the test compounds in sequence with a washout period between administration of each compound. Monkeys were fasted overnight prior to dosing and food was withheld during the first 4 hours after dosing and food was then allowed. Blood samples were collected at baseline prior to dosing, 4, 12, 24, 48 and 72 hrs after HIF-PHI administration. […] There were a total of 6 monkeys in each dose group, 3 that were dosed PO and 3 dosed IV.

healthy human subjects = settings: 0.15 mg/kg or […] weekly for 4 weeks
Method: Placebo was administered in the same regimen as a control (n=2 or n=1). Fasting blood samples for cholesterol analysis were collected from subjects in the morning on the day of dosing before compound or placebo was administered.

[3] = system: Cholesterol Biosynthesis Genes in the Mouse Liver; experiment: Microarray expression of cholesterol biosynthesis genes in mouse liver; format: in vivo; settings: 10 mg/kg oral
Method: A number of PHI compounds were evaluated for their effect on the expression of cholesterol biosynthesis genes in mouse liver. […] Liver tissue was harvested and stored in RNALater (Life Technologies). Total RNA was isolated with Trizol (Life Technologies) and purified with RNEasy96 (Qiagen) according to the manufacturers' protocols. RNA concentration was measured by NanoDrop (Thermo), and quality was assessed by Bioanalyzer (Agilent).
Biotinylated microarray probe was prepared using the 3′IVT Express kit (Affymetrix) and hybridized to mouse 430A 2.0 arrays as recommended in the manufacturer's protocol. Arrays were stained, washed, and scanned using Affymetrix equipment and software. Three arrays were run for each treatment and time point, each representing the liver sample from one individual animal.
Animals were sacrificed 4 h or 8 h later. Each compound was tested in a separate animal study with separate controls. Liver tissue was harvested and stored in RNALater (Life Technologies). Total RNA was isolated with Trizol (Life Technologies) and purified with RNEasy96 (Qiagen) according to the manufacturers' protocols. RNA concentration was measured by NanoDrop (Thermo), and quality was assessed by Bioanalyzer (Agilent).
For microarray analysis, RNA from animals in each treatment group was pooled in pairs (n=3 pairs for 4 h vehicle, n=2 pairs for all other treatment groups, for a total of 13 arrays per compound study). This approach was used to improve the signal-to-noise ratio on microarrays. Biotinylated probe was prepared using the One-Cycle cDNA synthesis kit (Affymetrix) and hybridized to mouse 430A 2.0 arrays as recommended in the manufacturer's protocol. Arrays were stained, washed, and scanned using Affymetrix equipment and software.
Array quality was assessed with GeneChip Operating System and/or Command Console software (Affymetrix). CEL files were uploaded to GeneSpring 7.3.1 (Agilent) using GC-RMA baseline correction. Principal Components Analysis was used to identify and reject outlier arrays. Data are reported as fold-change compared to timepoint-matched vehicle controls from the same study. Values less than 1.0 indicate a reduction of RNA in the treated animal liver tissue.

DIO mice = experiment: High cholesterol mouse model, diet induced obesity (DIO) mice
Excerpt: Ten-week-old male apoE knockout mice (Jackson Laboratories, Bar Harbor, Me.) were fed a normal chow diet (0.02% cholesterol, 13.5% fat by weight; LabDiet). Ten-week-old male diet induced obese mice (DIO Mice, Jackson Laboratories, Bar Harbor, Me.) were fed a high fat diet (0.095% cholesterol, 60% fat by weight; ResearchDiets) starting at six-weeks-old. After 2 weeks of acclimatization, whole blood was collected for baseline measurement before administration of test reagents. All test reagents were administered orally by gavage needle three times a week for 2 weeks for the apoE mice, and three times a week for 4 weeks for the DIO mice. The animals were sacrificed at end of study. Whole blood was collected weekly in Heparin-tube by submandibular bleeding and isolated plasma was stored at −80° C. for measurement of total cholesterol.
DIO mice as described in Example 10 were used to test the effect of various compounds on cholesterol levels. Compound (60 mg/kg) or vehicle was administered to the mice (n=10/group) three times a week for four weeks. A statin compound (rosuvastatin) was also tested. Blood samples were collected at weekly and total cholesterol blood levels were tested.

ApoE deficient mice = experiment: High cholesterol mouse model, ApoE deficient mice, 2 weeks; format: in vivo; settings: Compound 60 mg/kg three times a week for two weeks, n=10/group, FIG. 22
Excerpt: Ten-week-old male apoE knockout mice (Jackson Laboratories, Bar Harbor, Me.) were fed a normal chow diet (0.02% cholesterol, 13.5% fat by weight; LabDiet). […] After 2 weeks of acclimatization, whole blood was collected for baseline measurement before administration of test reagents. […] The animals were sacrificed at end of study.
ApoE deficient mice as described in Example 10 were used to test the effect of various compounds on cholesterol levels. […] A statin compound (rosuvastatin) was also tested. Blood samples were collected at the end of the study and total cholesterol blood levels were tested. A group of 10 mice was sacrificed at the beginning of the study for a baseline total cholesterol measurement. […] Typically statins show mixed results in this model and are not very effective to reduce cholesterol in mice (Bea et al. 2003 Atherosclerosis 167:187-194).

Compound: N#Cc1nc(C(=O)NCC(=O)O)c(O)c2c(Oc3ccc(Cl)cc3)cccc12 [Compound C]
- total cholesterol levels (cynomolgus monkeys [1]): dose-dependent decrease in cholesterol levels
- total cholesterol levels (cynomolgus monkeys [1]; listed as compound C): dose dependent decrease in total cholesterol
- Cholesterol change from baseline (cynomolgus monkeys [2]): -11.8 ± 4.9 mg/dL
- HDL change from baseline (cynomolgus monkeys [2]): 0.5 ± 6.9 mg/dL
- TGs change from baseline (cynomolgus monkeys [2]): -10 ± 21 mg/dL
- total cholesterol levels over the course of treatment (healthy human subjects): decreased

Compound: N#Cc1nc(C(=O)NCC(=O)O)c(O)c2ccn(Cc3ccccc3F)c12 [Compound G, {[7-Cyano-1-(2-fluoro-benzyl)-4-hydroxy-1H-pyrrolo[2,3-c]pyridine-5-carbonyl]-amino}-acetic acid]
- 3-hydroxy-3-methylglutaryl-Coenzyme A reductase (Hmgcr) RNA expression ([3]; 4 h): 0.68 fold-change
- 3-hydroxy-3-methylglutaryl-Coenzyme A synthase 1 (Hmgcs1) RNA expression ([3]; 4 h): 1.29 fold-change
- 7-dehydrocholesterol reductase (Dhcr7) RNA expression ([3]; 4 h): 0.91 fold-change
- NAD(P) dependent steroid dehydrogenase-like (Nsdhl) RNA expression ([3]; 4 h): 1.46 fold-change
- acetyl-Coenzyme A acetyltransferase 2 (Acat2) RNA expression ([3]; 4 h): 1.18 fold-change
- cytochrome P450, family 51 (Cyp51) RNA expression ([3]; 4 h): 1.00 fold-change
- farnesyl diphosphate farnesyl transferase 1 (Fdft1) RNA expression ([3]; 4 h): 1.15 fold-change
- farnesyl diphosphate synthetase (Fdps) RNA expression ([3]; 4 h): 1.16 fold-change
- isopentenyl-diphosphate delta isomerase (Idi1) RNA expression ([3]; 4 h): 1.13 fold-change
- lanosterol synthase (Lss) RNA expression ([3]; 4 h): 1.22 fold-change
- mevalonate (diphospho) decarboxylase (Mvd) RNA expression ([3]; 4 h): 1.03 fold-change
- mevalonate kinase (Mvk) RNA expression ([3]; 4 h): 0.98 fold-change
- phosphomevalonate kinase (Pmvk) RNA expression ([3]; 4 h): 0.95 fold-change
- squalene epoxidase (Sqle) RNA expression ([3]; 4 h): 1.50 fold-change
- sterol-C4-methyl oxidase-like (Sc4mol) RNA expression ([3]; 4 h): 0.87 fold-change
- sterol-C5-desaturase (fungal ERG3, delta-5-desaturase) homolog (S. cerevisae) (Sc5d) RNA expression ([3]; 4 h): 0.70 fold-change
- 3-hydroxy-3-methylglutaryl-Coenzyme A reductase (Hmgcr) RNA expression ([3]; 8 h): 0.66 fold-change
- 3-hydroxy-3-methylglutaryl-Coenzyme A synthase 1 (Hmgcs1) RNA expression ([3]; 8 h): 0.82 fold-change
- 7-dehydrocholesterol reductase (Dhcr7) RNA expression ([3]; 8 h): 1.07 fold-change
- NAD(P) dependent steroid dehydrogenase-like (Nsdhl) RNA expression ([3]; 8 h): 1.00 fold-change
- acetyl-Coenzyme A acetyltransferase 2 (Acat2) RNA expression ([3]; 8 h): 0.67 fold-change
- cytochrome P450, family 51 (Cyp51) RNA expression ([3]; 8 h): 0.62 fold-change
- farnesyl diphosphate farnesyl transferase 1 (Fdft1) RNA expression ([3]; 8 h): 0.98 fold-change
- farnesyl diphosphate synthetase (Fdps) RNA expression ([3]; 8 h): 0.73 fold-change
- isopentenyl-diphosphate delta isomerase (Idi1) RNA expression ([3]; 8 h): 0.94 fold-change
- lanosterol synthase (Lss) RNA expression ([3]; 8 h): 0.87 fold-change
- mevalonate (diphospho) decarboxylase (Mvd) RNA expression ([3]; 8 h): 1.03 fold-change
- mevalonate kinase (Mvk) RNA expression ([3]; 8 h): 0.89 fold-change
- phosphomevalonate kinase (Pmvk) RNA expression ([3]; 8 h): 0.70 fold-change
- squalene epoxidase (Sqle) RNA expression ([3]; 8 h): 1.22 fold-change
- sterol-C4-methyl oxidase-like (Sc4mol) RNA expression ([3]; 8 h): 0.58 fold-change
- sterol-C5-desaturase (fungal ERG3, delta-5-desaturase) homolog (S. cerevisae) (Sc5d) RNA expression ([3]; 8 h): 0.48 fold-change
- Cholesterol change from baseline (cynomolgus monkeys [2]): -6.5 ± 10.4 mg/dL
- HDL change from baseline (cynomolgus monkeys [2]): 0.17 ± 5.4 mg/dL
- LDL change from baseline (cynomolgus monkeys [2]): -8.7 ± 5.9 mg/dL
- LDL/HDL ratio change from baseline (cynomolgus monkeys [2]): −0.13 ± 0.08
- TGs change from baseline (cynomolgus monkeys [2]): -23 ± 8 mg/dL
- body weights at the end of the study (DIO mice; 60 mg/kg three times a week for four weeks): lower body weights

Compound: CC(C)c1nc(N(C)S(C)(=O)=O)nc(-c2ccc(F)cc2)c1/C=C/[C@@H](O)C[C@@H](O)CC(=O)O [rosuvastatin, reference compound]
- total cholesterol levels at the end of the study compared to baseline (ApoE deficient mice): did not show a reduction in cholesterol
- percent change from baseline in total cholesterol at two weeks compared to vehicle treated (DIO mice; Compound 60 mg/kg three times a week, n=10/group, FIG. 23): lower total cholesterol levels
